Experimental data reported in the PolyMetriX glass transition set.
± gives the standard deviation of the reports.

Row | SMILES | glass transition temperature
1 | *CC(*)(C)C(=O)OCCN(C)C (repeat unit) | 28.62 °C
2 | *Nc1ccc(C(=O)c2c(C)c(C)c(C(=O)c3ccc(NC(=O)c4ccc(C(*)=O)cc4)cc3)c(C)c2C)cc1 (repeat unit) | 345.00 °C
3 | *CCCCCCCC(=O)N* (repeat unit) | 37.00 °C
4 | *OP(=O)(Oc1ccccc1)Oc1ccc(S(=O)(=O)c2ccc(*)cc2)cc1 (repeat unit) | 100.50 °C
5 | *CC(*)(CC(=O)OCCCCCCCCC)C(=O)OCCCCCCCCC (repeat unit) | -13.00 °C
6 | *c1ccc(Oc2ccc(N3C(=O)c4c(c(-c5ccccc5)c(-c5ccc(Oc6ccc(-c7c(-c8ccccc8)c8c(c(-c9ccccc9)c7-c7ccccc7)C(=O)N(*)C8=O)cc6)cc5)c(-c5ccccc5)c4-c4ccccc4)C3=O)cc2)cc1 (repeat unit) | 360.00 °C
7 | *c1ccc(C(=O)NCCCCCCCCCCNC(=O)c2ccc(-c3nc4ccccc4nc3*)cc2)cc1 (repeat unit) | 166.00 °C
8 | *CC1CC(*)OC(CCC)O1 (repeat unit) [Poly(vinyl butyral)] | 54.42 ± 9.2 °C
9 | *c1ccc(Oc2ccccc2Oc2ccc(N3C(=O)c4ccc(Oc5ccccc5Oc5ccc6c(c5)C(=O)N(*)C6=O)cc4C3=O)cc2C(F)(F)F)c(C(F)(F)F)c1 (repeat unit) | 185.00 °C
10 | *Oc1ccc(CC(NC(=O)Cc2ccc(OC(=O)CCCCC(*)=O)cc2)C(=O)OCC)cc1 (repeat unit) | 63.00 °C
11 | *C(=O)Nc1cccc(Oc2cccc(Oc3cccc(Oc4cccc(Oc5cccc(NC(=O)c6ccc7c(c6)C(=O)N(c6cccc(Oc8cccc(Oc9cccc(N%10C(=O)c%11ccc(*)cc%11C%10=O)c9)c8C#N)c6)C7=O)c5)c4C#N)c3)c2C#N)c1 (repeat unit) | 193.00 °C
12 | *CC(*)C(=O)OCC(F)(F)C(F)(F)C(F)(F)C(F)(F)C(F)(F)F (repeat unit) | -39.00 °C
13 | *c1ccc2c(c1)C(=O)N(c1cccc(C(=O)Nc3ccc(Oc4ccc(C(c5ccc(Oc6ccc(NC(=O)c7cccc(N8C(=O)c9ccc(C(*)(C(F)(F)F)C(F)(F)F)cc9C8=O)c7)cc6)cc5)(C(F)(F)F)C(F)(F)F)cc4)cc3)c1)C2=O (repeat unit) | 266.00 °C
14 | *C(=O)Nc1cccc(C(=O)c2cccc(NC(=O)c3ccc4c(c3)C(=O)N(c3ccc(-c5sc(-c6ccc(N7C(=O)c8ccc(*)cc8C7=O)cc6)c(-c6ccccc6)c5-c5ccccc5)cc3)C4=O)c2)c1 (repeat unit) | 308.00 °C
15 | *CC(F)(F)C(F)(F)C(F)(F)COC(=O)c1cccc(C(F)(F)C(F)(F)C(F)(F)c2cccc(C(=O)O*)c2)c1 (repeat unit) | 24.00 °C
16 | *Oc1ccc(C(C)(C)c2ccc(OC(*)=O)cc2)cc1 (repeat unit) [Poly(bisphenol A carbonate)] | 152.42 ± 6.3 °C
17 | *CCCCN1C(=O)c2ccc(C(c3ccc4c(c3)C(=O)N(*)C4=O)(C(F)(F)F)C(F)(F)F)cc2C1=O (repeat unit) | 190.00 °C
18 | */C=C/c1cc(OCC2CC3CC2C2CCCC32)c(*)cc1OC (repeat unit) | 174.00 °C
19 | *COC(=O)Nc1ccc(Cc2ccc(NC(=O)OCc3ccc(*)o3)cc2)cc1 (repeat unit) | 81.00 °C
20 | *OC(COC(=O)c1ccc(-c2ccc(C(*)=O)cc2)cc1)COc1ccc(/N=N/c2ccc(C#N)cc2)cc1 (repeat unit) | 141.00 °C
21 | *c1ccc(OCCCCCCCCCCCOC(=O)c2cccc(C(=O)OCCCCCCCCCCCOc3cccc(-c4nnc(*)s4)c3)c2)cc1 (repeat unit) | 39.00 °C

Row | SMILES | glass transition temperature
22 | *C(=O)c1ccc2c(c1)C(=O)N(c1cccc(C(=O)c3ccc(Oc4ccc(N5C(=O)c6ccc(*)cc6C5=O)cc4)cc3)c1)C2=O (repeat unit) | 251.00 °C
23 | *CCNC(=O)c1ccc(C(=O)N*)c(Sc2ccccc2)c1 (repeat unit) | 172.00 °C
24 | *c1ccc(Oc2ccc(N3C(=O)c4ccc(Oc5ccc(C6(c7ccc(Oc8ccc9c(c8)C(=O)N(*)C9=O)cc7)CCC(c7ccccc7)CC6)cc5)cc4C3=O)cc2)cc1 (repeat unit) | 236.00 °C
25 | *CCCCCCCCCCCCCCCCCCCCC(*)COCCOCCOCCOCCOCc1ccc2ccc3cccc4ccc1c2c34 (repeat unit) | -21.00 °C
26 | *CC(*)[Si](C)(C)Cc1ccccc1 (repeat unit) | -24.00 °C
27 | *c1ccc(-c2ccc(N(c3ccc(OC)cc3)c3ccc4ccc(N(*)c5ccc(OC)cc5)cc4c3)cc2)cc1 (repeat unit) | 232.00 °C
28 | *c1ccc(/C=C/c2cc(OCC(CC)CCCC)c(/C=C/c3ccc(N(*)c4ccccc4)cc3)cc2OC)cc1 (repeat unit) | 147.00 °C
29 | *CC(CC(*)(C#N)C#N)c1ccc(Cl)cc1 (repeat unit) | 180.00 °C
30 | *C(=O)Oc1ccc(OCCCCCCCCCCCCOc2ccc(OC(=O)c3ccc4c(c3)C(=O)N(c3ccc(S(=O)(=O)c5ccc(N6C(=O)c7ccc(*)cc7C6=O)cc5)cc3)C4=O)cc2)cc1 (repeat unit) | 140.00 °C
31 | *Oc1ccc(C(CC)(CC)c2ccc(OC(*)=S)cc2)cc1 (repeat unit) | 121.00 °C
32 | *CCCCCOC(=O)OCCCCCN1C(=O)c2ccc(-c3ccc4c(c3)C(=O)N(*)C4=O)cc2C1=O (repeat unit) | 84.00 °C
33 | *c1ccc(Oc2ccc(Oc3ccc(-n4c(=O)c5cc6c(=O)n(*)c(=O)c6cc5c4=O)cc3)cc2C)cc1 (repeat unit) | 310.00 °C
34 | *CCOC(=O)CCCCCCCCC(=O)OCCOC(=O)c1ccc(C(=O)O*)cc1 (repeat unit) | -6.50 °C
35 | *c1ccc2c(c1)C(=O)N(c1ccc(-c3ccc(N4C(=O)c5ccc(C(*)(C(F)(F)F)C(F)(F)F)cc5C4=O)c(OCCCCCCOc4ccc(/C=C/c5ccc(F)cc5)cc4)c3)cc1OCCCCCCOc1ccc(/C=C/c3ccc(F)cc3)cc1)C2=O (repeat unit) | 140.00 °C
36 | */C(CCCCCC)=C(/*)c1ccccc1 (repeat unit) | 200.00 °C
37 | *c1cc(Br)c(-c2c(Br)cc(N3C(=O)c4ccc(-c5ccc6c(c5)C(=O)N(*)C6=O)cc4C3=O)cc2C(=O)OCCCCCC)c(C(=O)OCCCCCC)c1 (repeat unit) | 154.00 °C
38 | *C(=O)c1ccc2c(c1)C(=O)N(c1ccc(Cc3ccc(C(=O)c4cccc(N5C(=O)c6ccc(*)cc6C5=O)c4)cc3)cc1)C2=O (repeat unit) | 290.00 °C
39 | *CCCCCC(=O)N* (repeat unit) [Poly(6-aminohexanoic acid)] | 55.73 ± 5.6 °C
40 | *C[Si](*)(C)CCCOCCOCCOC (repeat unit) | -73.30 °C
41 | *CCCC(C)O[Si](C)(C)O* (repeat unit) | -81.00 °C
42 | *c1ccc(NC2CC(=O)N(c3ccc(Cc4ccc(N5C(=O)CC(Nc6ccc(-c7nc(-c8ccc(/C=C/c9ccc([N+](=O)[O-])cc9)cc8)[nH]c7*)cc6)C5=O)cc4)cc3)C2=O)cc1 (repeat unit) | 250.00 °C

Row | SMILES | glass transition temperature
43 | *CC(O)COc1ccc(S(=O)(=O)c2ccc(O*)cc2)cc1 (repeat unit) | 167.50 °C
44 | *=NP(=NP(=NC(=*)Oc1ccc(C(F)(F)F)cc1)(Oc1ccc(C(F)(F)F)cc1)Oc1ccc(C(F)(F)F)cc1)(Oc1ccc(C(F)(F)F)cc1)Oc1ccc(C(F)(F)F)cc1 (repeat unit) | 31.00 °C
45 | *C(=O)Nc1cccc(NC(=O)c2ccc(N3C(=O)c4ccc(*)cc4C3=O)cc2)c1 (repeat unit) | 240.00 °C
46 | *Oc1ccc(-c2ccc(Oc3ccc(C(=O)c4cccc(C(=O)c5ccc(*)cc5)c4)cc3)cc2)cc1 (repeat unit) | 159.00 °C
47 | *Oc1ccc(C2(c3ccc(Oc4ccc(C(=O)c5ccc(C(=O)c6ccc(*)c(C(F)(F)F)c6)cc5)cc4C(F)(F)F)cc3)c3ccccc3-c3ccccc32)cc1 (repeat unit) | 229.00 °C
48 | *Oc1cccc(Oc2ccc(Oc3cccc(OC(=O)c4ccc(C(*)=O)cc4)c3)cc2)c1 (repeat unit) | 103.00 °C
49 | *c1ccc(Oc2ccc(N3C(=O)C4CCC(C5CCC6C(=O)N(*)C(=O)C6C5)CC4C3=O)cc2)cc1 (repeat unit) | 257.00 °C
50 | *CCCCCCOP(=O)(/N=N/c1ccc(-c2ccc(/N=N/P(=O)(O*)OC)cc2)cc1)OC (repeat unit) | 37.00 °C
51 | *CC(*)c1cccc(C)c1 (repeat unit) [Poly(m-methyl styrene) ] | 95 ± 11 °C
52 | *OP(=O)(Oc1ccc(C)cc1)Oc1ccc(S(=O)(=O)c2ccc(*)cc2)cc1 (repeat unit) | 66.00 °C
53 | *CCN(CCOC(=O)NC(C)(C)c1cccc(C(C)(C)NC(=O)O*)c1)c1ccc(/N=N/c2ccc([N+](=O)[O-])cc2)cc1 (repeat unit) | 103.00 °C
54 | *CC(*)c1ccc(C(=O)c2ccccc2)cc1 (repeat unit) | 98.00 °C
55 | *Oc1ccc(-c2ccc(Oc3ccc(C(=O)c4ccc(*)c(S(=O)(=O)O)c4)cc3S(=O)(=O)O)cc2)cc1 (repeat unit) | 225.00 °C
56 | *CCCP(=O)(CCCNC(=O)CCCCC(=O)N*)c1ccccc1 (repeat unit) | 55.00 °C
57 | *CC(*)(F)C(=O)OCC(F)(F)C(F)(F)C(F)(F)C(F)(F)F (repeat unit) | 63.00 °C
58 | *O[Si](*)(C)CCCCCCCCCCC(=O)Oc1ccc(C(=O)Oc2ccc(-c3ccc(OC(=O)CCCCC(=O)OC4CC(C)CCC4C(C)C)cc3)cc2)cc1 (repeat unit) | 32.40 °C
59 | *Oc1ccc(CC(NC(=O)Cc2ccc(OC(=O)CCCC(*)=O)cc2)C(=O)OCCCCCC)cc1 (repeat unit) | 42.00 °C
60 | *c1ccc2c(c1)C(=O)N(c1ccc(C3(c4ccc(N5C(=O)c6ccc(C(*)(C(F)(F)F)C(F)(F)F)cc6C5=O)c(F)c4)c4ccccc4-c4ccccc43)cc1F)C2=O (repeat unit) | 352.00 °C
61 | *c1ccc(Oc2ccc(C(C)(C)c3ccccc3)cc2)c(N2C(=O)c3ccc(-c4ccc5c(c4)C(=O)N(*)C5=O)cc3C2=O)c1 (repeat unit) | 275.00 °C
